Common to all, as to type: in vivo
The subject of test [1] is male Swiss albino mice (CD-1). Nature of the test: Subcutaneous pentylenetetrazole seizure test (scPTZ). A digest of the protocol:
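Compounds given i.p. in 1% aqueous Tween 30 min before s.c. PTZ at 100 mg/kg. Mice observed 30 min for clonic seizures (whole-body clonus ≥3 s with loss of righting reflex); absence counted as protection. ED50 from 3-4 groups of 6 mice; screening in groups of 4.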

Test [2] deals with male white Swiss mice (CD-1). Description: Capsaicin-induced pain model. The settings on record: Mus musculus, ip; i.p. 30 min before capsaicin, mice. The method, then:
The tests were carried out using male white Swiss mice (CD-1) weighing 18-25 g. All procedures were carried out in accordance with Polish and international guidelines on ethics of animal testing, after obtaining appropriate institutional approval. The study group consisted of 8-10 animals. The tested and reference substances were administered intraperitoneally 30 minutes before given test as suspension in 1% aqueous solution of Tween. All tests/models were carried out based on the procedures described in the specialist literature: the formalin test (Beirith, A.; Santos, A. R.; Calixto, J. B.; Rodrigues, A. L.; Creczynski-Pasa, T. B. Eur. J. Pharmacol. 1998, 345, 233-245), the model of capsaicin-induced pain (Mogilski, S.; Kubacka, M.; Redzicka, A.; Kazek, G.; Dudek, M.; Malinka, W.; Filipek, B. Pharmacol. Biochem. Behav. 2015, 133, 99-110), the model of oxaliplatin-induced neuropathic pain—von Frey test (Sałat, K.; Cios, A.; Wyska, E.; Satat, R.; Mogilski, S.; Filipek, B.; Wigȩkowski, K.; Malawska, B. Pharmacol. Biochem. Behav. 2014, 122, 173-181).
This test assesses the time of licking and/or biting the hind paw into which mice were injected subplantarly with capsaicin in an amount of 1.6 μg, dissolved in 20 μl of a mixture containing 0.9% saline and ethanol (5% of the final volume). Observation was carried out […] after capsaicin administration. Test compounds were administered intraperitoneally 30 minutes before administration of capsaicin. Inhibition of nociceptive reaction—shortening the time of licking and biting the paw was the measure of antinociceptive activity of the compound tested.
Valproic acid (VPA) was the reference compound in this test. […] Compound 6 was administered at 20 mg/kg, 30 mg/kg and 40 mg/kg. Test compounds were administered as a suspension in 1.0% Tween 80 solution. The control group consisted of mice treated with vehicle alone (1% Tween 80 solution). The nociceptive reaction time in this group was 43.29±3.21 seconds.

Test [3] has as its system male Swiss albino mice (CD-1). Nature of the test: Maximal electroshock seizure test (MES). A digest of the protocol:
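Male CD-1 mice (18–26 g) received compound i.p. in 1% aqueous Tween 30 min before a 0.2 s, 500 V, 25 mA auricular electroshock.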
Background: The maximal electroshock test induces tonic seizures with an electrical stimulus.

Test [4] concerns male Swiss albino mice (CD-1). Description: Psychomotor seizure test 6 Hz (32 mA). Summed up: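 Compounds given i.p. in 1% aqueous Tween 30 min before a 3 s ocular stimulus (32 mA and/or 44 mA, 6 pulses/s) after lidocaine; mice normal within 10 s counted protected. ED50 from 3-4 groups of 6 mice; screening on groups of 4.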
The mark [5] stands for this setting: screening, 100 mg/kg, time point 0.5 h.

In the case of `O=C(C(c1ccccc1)N1C(=O)CCC1=O)N1CCN(c2cccc(C(F)(F)F)c2)CC1` (racemic) [Compound 6, 1-(2-Oxo-1-phenyl-2-(4-(3-(trifluoromethyl)phenyl)piperazin-1-yl)ethyl)pyrrolidine-2,5-dione], the ED50 in test [1] (Mus musculus, ip, 0.5 h, mice) is 59.4 mg/kg; in test [2], 17.9 mg/kg; in test [3] (Mus musculus, ip, 0.5 h, mice), 23.7 mg/kg; in test [4] (Mus musculus, ip, 0.5 h, mice), 22.4 mg/kg. Moreover, the responders at 100 mg/kg in test [1] (Mus musculus, ip, screening, 100 mg/kg i.p., 0.5 h, mice, read-out: scPTZ: number of mice protected/number of mice tested (converted)) was 100%; in test [4] (Mus musculus, ip, screening, 100 mg/kg i.p., 0.5 h, mice, read-out: 6 Hz (32 mA): number of mice protected/number of mice tested (converted)), 100%. In addition, the “mice protected in the scPTZ test” value in test [1] (setting [5]) came to 100%. For the same compound, the “mice protected in the MES test” value in test [3] (setting [5]) turned out to be 100%. Further, the “mice protected in the 6 Hz (32 mA) test” value in test [4] (setting [5]) was 100%.

The ED50 is the dose that gives a 50% effect, or the effect in half of the subjects. A higher ED50 goes with a need for a large dose.
